From patent publication US20200069592A1, “HSP90 INHIBITOR ORAL FORMULATIONS AND RELATED METHODS” (Samus Therapeutics, Inc., priority 2017, published 2020)

Key:
[1] = Body weight change / dose tolerance in the MDA-MB-468 xenograft study
Description: The animals used in this study were Nu/Nu (NU-Foxn1^nu) (athymic nude) physiologically normal female mice supplied by Charles River. At the time of inoculation, the age of the animals was 5-8 weeks. Sixty total animals were used and animals were not replaced during the course of this study. Mice were identified with a transponder. The animals were housed in individually ventilated microisolator cages and allowed to acclimate for at least 5-7 days. The animals were maintained under pathogen-free conditions and given Teklad Global Diet® 2920x irradiated pellets for food and autoclaved water ad libitum.
Compound ldihydrochloride (2HCl) was provided as a crystalline powder and stored at 2-8° C. protected from light. The administered form of Compound 1 2HCl was a clear solution. For intraperitoneal administration, Compound 1 2HCl was reconstituted in PBS. For oral administration, Compound 1 2HCl was reconstituted in 0.5% Methylcellulose (MC) in water. The salt: base ratio was 1.14:1 (i.e., to obtain 100 mg of Compound 1 free base, 114 mg of Compound 1 dihydrochloride salt was weighed out). Dose levels of Compound 1 were based on the free base, not the salt. Compound 1 2HCl in administered form was prepared fresh immediately prior to use.
Animals were randomized using random equilibration of tumor volume into one of six study groups, as shown in Table 22 (Groups 1-6), with 10 animals in each group.
Group 1 was administered vehicle control alone (without Compound 1 2HCl) intraperitoneally (IP) three times weekly (TIW) until the end of the study. PBS was used as the vehicle control and was administered at a volume of 10 mL/kg.
Groups 2-6 were administered Compound 1 2HCl at a volume of 10 mL/kg three times weekly (TIW) until the end of the study with the doses as described next.
Group 2 received 75 mg/kg Compound 1 2HCl via intraperitoneal administration.
Group 3 received 75 mg/kg Compound 1 2HCl via oral administration (PO). Group 4 received 100 mg/kg Compound 1 2HCl via oral administration. Group 5 received 125 mg/kg Compound 1 2HCl via oral administration. Group 6 received 150 mg/kg Compound 1 2HCl via oral administration. […]
Tumor volume and body weight were measured twice weekly with gross observations daily. […]
For data analysis, simple statistics (ANOVA) will be conducted on tumor volumes to verify significance of treatment groups relative to control. Growth curves will be constructed and percent tumor growth inhibition (TGI) will be calculated as a means to assess the effect of the single-agent therapy regimens. […]
The Materials and Methods used were the same as discussed above for Example 3, except for the lengths of treatment for Groups 1-4. […] Tumor growth and body weight were measured twice weekly with gross observations daily for Groups 1-5 until Day 117.

[2] = test system: MDA-MB-468 triple negative breast tumor xenograft; assay: MDA-MB-468 triple negative breast tumor xenograft model, tumor volume (IP vs PO); assay type: in vivo, Nu/Nu (athymic nude) female mice; conditions: for Mean tumor volume as % of mean tumor volume in control mice receiving vehicle alone / Mean tumor volume as % of mean tumor volume in mice receiving 75 mg/kg orally or intraperitoneally: Day 89; for Mean tumor volume on Day 117 relative to the same mice at Day 1: treatment stopped Day 103
Description: Mice were identified with a transponder.
To form the xenografts, 1×10^7 MDA-MB-468 cells suspended in 0.1 ml of 50% Matrigel/50% Media (1:1) were injected into the mammary fat pad of each mouse. Treatment was initiated when the mean tumor size reached 100-150 mm^3 and the day of treatment initiation was designated as Day 1. Subcutaneous tumor size was calculated as tumor volume (mm^3)=(a×b^2/2), where ‘b’ is the smallest diameter and ‘a’ is the largest diameter.
Oral gavage was used for oral administration.

## CC(C)NCCCn1c(Sc2cc3c(cc2I)OCO3)nc2c(N)ncnc21 [Compound 1 2HCl]
[1]; 100 mg/kg PO, during and after treatment (to Day 117)
  Body weight change: minimal effects on body weight
[1]; Group 2: 75 mg/kg IP, Day 5 and Day 8
  Body weight change: greater decrease in body weight
[2]; 75 mg/kg IP, TIW, Day 36
  Effect on tumor growth (tumor volume): tumor inhibition was observed
[2]; 75 mg/kg IP, TIW
  Mean tumor volume as % of mean tumor volume in control mice receiving vehicle alone: about 20%
[2]; 75 mg/kg IP
  Mean tumor volume on Day 117 relative to the same mice at Day 1: 1.7-1.9 times
[2]; 75 mg/kg PO vs same dose IP, first 14 days of treatment
  Effect on tumor growth (tumor volume): inhibited tumor growth slightly more than intraperitoneal administration
[2]; 75 mg/kg PO, TIW, Day 36
  Effect on tumor growth (tumor volume): tumor inhibition was observed
[2]; 75 mg/kg PO, TIW
  Mean tumor volume as % of mean tumor volume in control mice receiving vehicle alone: about 20%
[2]; 75 mg/kg PO
  Mean tumor volume on Day 117 relative to the same mice at Day 1: 1.7-1.9 times
[2]; 100 mg/kg PO, TIW, 89 days
  Effect on tumor growth (tumor volume): tumor regressive
[2]; 100 mg/kg PO, TIW, Day 36
  Effect on tumor growth (tumor volume): Tumor inhibition was also observed
[2]; 100 mg/kg PO, TIW
  Mean tumor volume as % of mean tumor volume in mice receiving 75 mg/kg orally or intraperitoneally: about 50%
[2]; 100 mg/kg PO, after treatment stopped Day 103, study to Day 117
  Mean tumor volume as % of mean tumor volume in the same mice at day 1: about 63%
[2]; 125 mg/kg PO, TIW (dosing holiday Day 29), 36 day period
  Effect on tumor growth (tumor volume): caused tumor regression
[2]; 125 mg/kg PO, TIW with dosing holidays, dosing ended Day 78
  Mean tumor volume as % of mean tumor volume in mice receiving 75 mg/kg orally or intraperitoneally: about 50%
[2]; 125 mg/kg PO, TIW with dosing holidays, 89 days
  Effect on tumor growth (tumor volume): tumor regressive
[2]; 125 mg/kg PO, after treatment stopped Day 78, study to Day 117
  Mean tumor volume as % of mean tumor volume in the same mice at day 1: ~70%
[2]; Group 2: 75 mg/kg IP in PBS, TIW, Study Days 1-8
  Effect on tumor growth (tumor volume): did not inhibit tumor growth
[2]; Group 3: 75 mg/kg PO in 0.5% MC, TIW, Day 8, compared with Group 2
  Effect on tumor growth (tumor volume): tumor growth was reduced
[2]; Group 4: 100 mg/kg PO, TIW, Days 1-8, compared to Group 1
  Effect on tumor growth (tumor volume): Inhibition of tumor growth
[2]; Group 5: 125 mg/kg PO, TIW, Days 1-8
  Effect on tumor growth (tumor volume): greatest suppression of tumor growth
[2]; Group 6: 150 mg/kg PO, TIW, Days 1-8
  Effect on tumor growth (tumor volume): greatest suppression of tumor growth
